Assay results taken from publication PMC10812557, “Progressive Design of a Ranatuerin-2 Peptide from Amolops wuyiensis: Enhancement of Bioactivity and In Vivo Efficacy” (Antibiotics, 2023).
Several values for one entry are separate records, joined by “and”; a condition that tells them apart may be missing. Equal values may be shown once. Read-outs that look alike come from different tables or passages of the source. Peptide text beside a SMILES is read from it.

Key:
E. faecium (NTCC 12697) [1] = test: microbe, parasite or virus in culture; format: cell-based
Source text: (§1) The MIC and MBC assays were used to assess the inhibitory activities of all 5 analogues of R2AW on the growth of planktonic microorganisms. The MIC is the lowest concentration that prevents the viable growth of bacteria. The MBC is the lowest concentration that results in bacterial death. Six microorganisms were used to detect the antimicrobial activity of peptides, including Gram-positive bacteria S. aureus (NCTC 10788), MRSA (NCTC 12493), Enterococcus faecalis (E. faecalis) (NCTC 12697), Gram-negative bacteria E. coli […], Klebsiella pneumoniae (K. pneumoniae) (ATCC 43816), and Pseudomonas aeruginosa (P. aeruginosa) (ATCC 9027). According to the assay described previously, the microorganisms were inoculated at 37 °C overnight and diluted to 5 × 10^5 CFU/mL after reaching the logarithmic growth period. The peptide stock solution at the concentration of 512 × 10^2 μM was prepared and diluted to 100 μM by a 2-fold dilution. One μL of each concentration of peptide solution was incubated with 99 μL of bacterial subculture in the 96-well plate for 18 h at 37 °C. The absorbance was determined at a wavelength of 550 nm using a Synergy HT plate reader (Bio Tek, Washington, DC, USA). […] As for those wells that were clearly visible, 20 μL of the solution was dropped onto the Mueller Hinton agar (MHA) dish and then incubated at 37 °C overnight. The lowest concentration with no colony growth was determined as the MBC.

MRSA (NCTC 12493) [2] = test: microbe, parasite or virus in culture; format: cell-based
Source text: as §1

S. aureus (NCTC 10788) [3] = test: microbe, parasite or virus in culture; format: cell-based
Source text: as §1

E. coli (ATCC 8739) [4] = format: cell-based; details: ATCC 8739, 18 h
Source text: as §1

[5] = tested on: K. pneumoniae (ATCC 43816); format: cell-based; details: ATCC 43816, 18 h
Source text: as §1

[6] = tested on: P. aeruginosa (ATCC 9027); format: cell-based; details: ATCC 9027, 18 h
Source text: as §1

S. aureus (NCTC 10788) [7] = format: cell-based, Staphylococcus aureus
Experimental: (§2) As a previous study described in detail, the ability of R2AW and its analogues to inhibit and eradicate the formation of biofilm was investigated. The MBIC is the lowest concentration which inhibits the formation of biofilm. The MBEC is the minimum concentration that eradicates biofilm. Six bacterial strains were used, as described above. Briefly, the bacteria were cultured and then diluted to 5 × 10^5 CFU/mL. In MBIC assays, 1 μL of each concentration of R2AW and its analogues (ranging from 512 × 10^2 μM to 100 μM) was mixed with 99 μL of diluted bacterial suspension in a 96-well plate for 16-20 h at 37 °C. As for MBEC assays, 100 μL of cultured bacteria were seeded in a 96-well plate and incubated on the shaking incubator at 37 °C overnight for biofilm formation. Subsequently, each well was rinsed twice with 100 μL sterile PBS to remove planktonic cells, and then replaced with 100 μL of each concentration (ranging from 512 μM to 1 μM) of peptides. After 24 h incubation, the biofilm was washed twice with 100 μL of PBS and fixed with methanol. Next, the same volume of 0.1% crystal violet solution (Sigma-Aldrich, Gillingham, UK) was added to each well to stain the biofilm. After that, 100 μL of 30% of acetic acid (Sigma-Aldrich, Gillingham, UK) was transferred to each well for dissolution. The solutions were transferred into a new 96-well plate and the absorbances of wells was monitored using a Synergy HT plate reader set to 595 nm.

E. coli (ATCC 8739) [8] = format: cell-based, Escherichia coli
Experimental: as §2

MRSA (NCTC 12493) [9] = format: cell-based, methicillin-resistant Staphylococcus aureus
Experimental: as §2

[10] = tested on: K. pneumoniae (ATCC 43816); format: cell-based, Klebsiella pneumoniae
Experimental: as §2

E. faecium (NTCC 12697) [11] = format: cell-based
Experimental: as §2

[12] = tested on: P. aeruginosa (ATCC 9027); format: cell-based, Pseudomonas aeruginosa
Experimental: as §2

H838 = format: cell-based, human; details: 24 h
Experimental: (§3) Five human cancer cell lines of non-small-cell lung cancer H838, human prostate carcinoma PC-3, human neuronal glioblastoma U251MG, human breast cancer cell MCF-7, and colorectal carcinoma HCT116 were used to detect the antiproliferative abilities of R2AW and its five analogues. According to the procedures in a previous article, cells (8000 cells/well) were seeded into the 96-well tissue culture plates and incubated at 37 °C with 5% CO2 overnight. The solutions of R2AW and its analogues at concentrations of 10^−4 M to 10^−9 M were prepared in the serum-free medium. Next, cells in each well were treated with 100 μL of each peptide solution for 24 h. Subsequently, 10 μL of 5 mg/mL MTT (3-(4, 5-Dimethylthiazol-2-yl-)-2, 5-Diphehyltetrazolium Bromide) was added to each well followed by 37 °C incubation for 2 h. After that, the liquid in each well was removed and 100 μL of DMSO was added to dissolve the purple formazan. The plate was placed on a shaking incubator for 10 min, and the absorbance was detected at 550 nm using a Synergy HT plate reader (Biotech, Minneapolis, MN, USA).

HCT116 = format: cell-based, human; details: 24 h
Experimental: as §3

MCF-7 = format: cell-based, human; details: 24 h
Experimental: as §3

PC-3 = format: cell-based, human; details: 24 h
Experimental: as §3

U251MG = format: cell-based, human; details: 24 h
Experimental: as §3

Haemolysis assay = format: cell-based, horse
Experimental: The haemolytic activity of R2AW and its five designed analogues on mammalian erythrocytes was evaluated using 2% defibrinated horse blood (TCS Biosciences Ltd., Buckingham, UK) as per a previous report. Two mL of fresh horse blood was transferred into a 50 mL tube and then washed with sterilised PBS. The supernatant was removed after centrifuging (930× g, 5 min). The centrifugation procedure was repeated until the supernatant was clear. After washing, the red blood cell pellet was diluted with PBS to achieve a 4% (v/v) erythrocyte suspension. The concentrations of R2AW and its designed derivatives were prepared from 512 μM to 2 μM by two-fold dilution in sterilised PBS. One hundred µL of red blood cell suspension was added into a 1.5 mL tube treated with the same volume of each concentration of peptide and incubated at 37 °C for 2 h. The red blood cell suspensions treated with 0.2% Triton X-100 and with PBS were regarded as positive control and negative control. After centrifugation at 930× g for 10 min, 100 μL of suspension was transferred to a 96-well plate, and the absorbance was obtained by use of a Synergy HT plate reader. The degree of haemolysis could be calculated using the following formula: Haemolysis = (absorbance (experimental groups) − absorbance (negative control))/(absorbance (positive control) − absorbance (negative control)) × 100%.

S. aureus (NCTC 10788) [13] = test: Time–killing assay; format: cell-based, Staphylococcus aureus; details: control antibiotic, 3 h incubation
Experimental: (§4) S. aureus (NCTC 10788), E. coli (ATCC 8739), MRSA (NCTC 12493), and P. aeruginosa (ATCC 9027) were used in this assay. Treatments of 2 × MIC, 1 × MIC, and 0.5 × MIC of [Lys^4,19, Leu^20]R2AW(1-22)-NH2 were prepared and mixed with 198 μL of diluted bacteria (5 × 10^5 CFU/mL). At each time point (0, 10, 20, 30, 60, 90, 120, and 180 min), 10 μL of peptide and bacteria mixture was dropped onto the MHA plate. After overnight incubation, the number of bacterial colonies was calculated. The CFU/mL could be calculated using the formula CFU/mL = (Number of colonies × dilution factor)/volume of culture.

MRSA (NCTC 12493) [14] = test: Time–killing assay; format: cell-based, methicillin-resistant Staphylococcus aureus; details: control antibiotic, 3 h incubation
Experimental: as §4

[15] = Staphylococcus aureus, NCTC10788

SMILES	MBC (E. faecium (NTCC 12697) [1]; NTCC 12697, 18 h) [mg/L]	MBC (MRSA (NCTC 12493) [2]; MRSA (NCTC 12493)) [mg/L]	MIC (MRSA (NCTC 12493) [2]; MRSA (NCTC 12493)) [mg/L]	MBC (S. aureus (NCTC 10788) [3]; NCTC 10788, 18 h) [mg/L]	MIC (S. aureus (NCTC 10788) [3]; NCTC 10788, 18 h)	MBC (E. coli (ATCC 8739) [4]) [µg/mL]	MIC (E. coli (ATCC 8739) [4])	MBC [5] [µg/mL]	MIC [5] [µg/mL]	MBC [6] [µg/mL]	MIC [6] [µg/mL]	MBEC (S. aureus (NCTC 10788) [7]) [µM]	MBIC (S. aureus (NCTC 10788) [7]) [µM]	MBEC (E. coli (ATCC 8739) [8]) [µM]	MBIC (E. coli (ATCC 8739) [8]) [µM]	MBEC [10] [µM]	MBIC [10] [µM]	MBEC (E. faecium (NTCC 12697) [11]) [µM]	MBIC (E. faecium (NTCC 12697) [11]) [µM]	MBEC [12] [µM]	other results
CC[C@H](C)[C@H](NC(=O)[C@H](CCCCN)NC(=O)[C@H](CO)NC(=O)[C@H](CCCCN)NC(=O)[C@H](CC(C)C)NC(=O)[C@H](CCCCN)NC(=O)[C@H](CC(=O)O)NC(=O)[C@H](CC(C)C)NC(=O)[C@H](CC(C)C)NC(=O)[C@@H](NC(=O)[C@H](C)NC(=O)[C@H](C)NC(=O)[C@@H](NC(=O)[C@H](CC(N)=O)NC(=O)[C@H](CCCCN)NC(=O)[C@H](C)NC(=O)[C@@H](NC(=O)[C@H](CC(N)=O)NC(=O)[C@H](CCCCN)NC(=O)[C@H](C)NC(=O)[C@@H](NC(=O)[C@H](CC(=O)O)NC(=O)[C@H](CCSC)NC(=O)[C@H](Cc1ccccc1)NC(=O)CN)[C@@H](C)O)C(C)C)C(C)C)[C@@H](C)O)C(=O)N[C@H](C(=O)NCC(=O)NCC(=O)N[C@@H](CO)C(=O)O)[C@@H](C)O [[Ser^23,29]R2AW] (H-GFMDTAKNVAKNVAATLLDKLKSKITGGS-OH)	1526	1526	763	191	64 µM	381	64 µM	1526	763	> 1526	1526	> 512	128	512	128	>512	>512	>512	>512	>512	MBEC (MRSA (NCTC 12493) [9]; MRSA (NCTC 12493)): > 512 µM; MBIC (MRSA (NCTC 12493) [9]; MRSA (NCTC 12493)): 256 µM; MBIC [12]: >512 µM; IC50 (H838): 19.3 µM; IC50 (HCT116): 31.6 µM; IC50 (MCF-7): 62.7 µM; IC50 (PC-3): 17.4 µM; IC50 (U251MG): 37.3 µM; hemolysis at 2 h (Haemolysis assay; horse erythrocytes (washed red blood cell suspension), horse erythrocytes, up to 256 μM): ~10%
CSCC[C@H](NC(=O)[C@H](Cc1ccccc1)NC(=O)CN)C(=O)N[C@@H](CCCCN)C(=O)N[C@H](C(=O)N[C@@H](Cc1c[nH]c2ccccc12)C(=O)N[C@@H](CCCCN)C(=O)N[C@@H](CC(N)=O)C(=O)N[C@H](C(=O)N[C@@H](Cc1c[nH]c2ccccc12)C(=O)N[C@@H](CCCCN)C(=O)N[C@@H](CC(N)=O)C(=O)N[C@H](C(=O)N[C@@H](C)C(=O)N[C@@H](C)C(=O)N[C@H](C(=O)N[C@@H](CC(C)C)C(=O)N[C@@H](CC(C)C)C(=O)N[C@@H](CCCCN)C(=O)N[C@@H](CC(C)C)C(=O)N[C@@H](CC(C)C)C(=O)N[C@@H](CCCCN)C(N)=O)[C@@H](C)O)C(C)C)C(C)C)[C@@H](C)O [[Trp^6,10]R2AW(1-22)-NH2] (H-GFMKTWKNVWKNVAATLLKLLK-NH2; N-terminus assumed)	41.4	20.7	10.4	20.7	10.4 mg/L	41.4	20.7 µg/mL	82.8	41.4	166	82.8	512	8	256	4	256	16	> 512	8	512	MIC (E. faecium (NTCC 12697) [1]; NTCC 12697, 18 h): 20.7 mg/L; MBEC (MRSA (NCTC 12493) [9]; NCTC 12493): > 512 µM; MBIC (MRSA (NCTC 12493) [9]; NCTC 12493): 8 µM; MBIC [12]: 32 µM; IC50 (H838): 3.41 µM; IC50 (HCT116): 5.38 µM; IC50 (MCF-7): 5.33 µM; IC50 (PC-3): 1.73 µM; IC50 (U251MG): 3.35 µM; hemolysis at 2 h, 2 µM (Haemolysis assay; horse): ~20%
CN[C@H](CC(C)C)C(=O)N[C@H]1C(=O)N[C@@H](CC(N)=O)C(=O)N[C@H]2C(=O)N[C@H]3C(=O)N[C@H](C(=O)N[C@H](C(=O)O)c4cc(O)cc(O)c4-c4cc3ccc4O)[C@H](O)c3ccc(c(Cl)c3)Oc3cc2cc(c3O[C@@H]2O[C@H](CO)[C@@H](O)[C@H](O)[C@H]2O[C@H]2C[C@](C)(N)[C@H](O)[C@H](C)O2)Oc2ccc(cc2Cl)[C@H]1O [Vancomycin, reference compound]																					MBC (E. faecium (NTCC 12697) [1]; Enterococcus faecium): > 92.7 µg/mL and > 64 µM; MIC (E. faecium (NTCC 12697) [1]; Enterococcus faecium): 0.7 µg/mL and 0.5 µM; MBC (MRSA (NCTC 12493) [2]; Staphylococcus aureus): 0.7 µg/mL and 0.5 µM; MIC (MRSA (NCTC 12493) [2]; Staphylococcus aureus): 0.7 µg/mL and 0.5 µM; MBC (S. aureus (NCTC 10788) [3]; [15]): 0.7 µg/mL and 0.5 µM; MIC (S. aureus (NCTC 10788) [3]; [15]): 0.7 µg/mL and 0.5 µM; killing effect in time–killing curve (S. aureus (NCTC 10788) [13]): could only inhibit the growth of bacteria; killing effect in time–killing curve (MRSA (NCTC 12493) [14]): could only inhibit the growth of bacteria
